# From PMC6413085, “A Validated HPLC-MS/MS Assay for 14-O-[(4,6-Diaminopyrimidine-2-yl)thioacetyl] Mutilin in Biological Samples and Its Pharmacokinetic, Distribution and Excretion via Urine and Feces in Rats” (Molecules, 2019)
# Read-outs that look alike come from different tables or passages of the source.
# Tests used:
# [1] = Pharmacokinetic study of DPTM in rats after i.v., i.m. and p.o. administration (HPLC-MS/MS, non-compartmental); type: in vivo; settings: Sprague-Dawley, plasma, rat; for Tmax: median (min–max); for bioavailability: read-out: F, absolute bioavailability; for MRT last: read-out: MRT0–t; for CL renal: read-out: CLR(0–t) renal clearance; for Vd: read-out: Vss
# Experimental: After administration of three i.v., i.m. and p.o. dose (10, 25 and 75 mg/kg) of DPTM to rats, the pharmacokinetic profiles of DPTM were quantified by the validated HPLC-MS/MS methods. […] Blood samples (approximately 200 µL) were collected into heparinized tubes through an indwelling catheter inserted in the jugular vein [30] at 0.083, 0.166, 0.5, 1, 2, 4, 6, 8, 12 and 24 h after i.v. dosing and at 0.083, 0.166, 0.5, 1, 2, 4, 6, 8, 12, 24 and 48 h after i.m. or p.o. dosing. The samples were immediately centrifuged (4000 rpm for 10 min) and the supernatants were taken out and stored in a freezer at −70 °C until analysis. The drug was extracted with acetonitrile using the condition previously described. Then, an aliquot of the reconstituted extracts was transferred and filtrated through a 0.22-μm cellulose membrane filter and 10 μL was injected into the HPLC-MS/MS system. A non-compartmental model was used to determine the pharmacokinetic parameters of DPTM. Pharmacokinetic parameters, including maximum plasma concentration (Cmax), time (Tmax), area under the plasma concentration versus time curve from zero to last sampling time (AUC0−t) and elimination half-life (t1/2) were calculated using WinNonlin software (version 2.1, Pharsight, Mountain View, CA, USA). The absolute bioavailability was calculated as follows:F = (AUCextravascular/(AUCi.v.) × (dosei.v./doseextravascular) × 100%. The data are presented as mean ± standard deviation (SD) except for Tmax values using median (minimum value–maximum value).
# [2] = Excretion via urine and feces study in rats; type: in vivo, Sprague-Dawley rats; settings: rat, 75 mg/kg
# Experimental: Excretion via urine and feces was studied in another six rats (half male and half female). After the rats were administered via a single i.v., i.m. and p.o. dose (75 mg/kg) of DPTM, urine and feces samples were collected at 0–4, 4–8, 8–12, 12–24, 24–36, 36–48, 48–72, 72–96, 96–144, 144–192 and 192–240 h intervals in plastic centrifuge tubes and stored at −70 °C until analysis. For quantitative analysis, the fecal samples were dried at 45 °C for 24 h and prepared by the established sample treatment procedure. The urinary samples were prepared by the established sample treatment procedure directly. The obtained samples were injected into the HPLC-MS/MS system for analysis.
# [3] = test system: Gram-positive bacteria, including methicillin-resistant Staphylococcus aureus (MRSA), Staphylococcus aureus, Bacillus subtilis; set-up: method as in PMID 27940400; settings: S. aureus, B. subtilis; cited from earlier work
smiles,measurement,setting,value
"C=CC1(C)CC(OC(=O)CSc2nc(N)cc(N)n2)C2(C)C(C)CCC3(CCC(=O)C32)C(C)C1O (centres unmarked) [DPTM, 14-O-[(4,6-Diaminopyrimidine-2-yl)thioacetyl] mutilin]",Tmax,"[1]; im, 10 mg/kg",30 min
same,Tmax,"[1]; im, 25 mg/kg",30 min
same,Tmax,"[1]; im, 75 mg/kg",30 min
same,bioavailability,"[1]; im, i.m., 10 mg/kg",68.2%
same,MRT last,"[1]; im, i.m., 10 mg/kg",4.4 ± 0.3 h
same,bioavailability,"[1]; im, i.m., 25 mg/kg",48.5%
same,MRT last,"[1]; im, i.m., 25 mg/kg",4.8 ± 0.3 h
same,CL renal,"[1]; im, i.m., 75 mg/kg",46.2 ± 3.8 mL/min
same,bioavailability,"[1]; im, i.m., 75 mg/kg",15.8%
same,MRT last,"[1]; im, i.m., 75 mg/kg",4.2 ± 0.8 h
same,clearance,"[1]; iv, 10 mg/kg",5 mL/min/kg
same,Tmax,"[1]; iv, 10 mg/kg",4.8 min
same,clearance,"[1]; iv, 25 mg/kg",1.67 mL/min/kg
same,Tmax,"[1]; iv, 25 mg/kg",4.8 min
same,clearance,"[1]; iv, 75 mg/kg",0.5 mL/min/kg
same,Tmax,"[1]; iv, 75 mg/kg",4.98 min
same,MRT last,"[1]; iv, i.v., 10 mg/kg",1 ± 0.2 h
same,Vd,"[1]; iv, i.v., 10 mg/kg",0.3 ± 0.1 L/kg
same,MRT last,"[1]; iv, i.v., 25 mg/kg",1.3 ± 0.7 h
same,Vd,"[1]; iv, i.v., 25 mg/kg",0.2 L/kg
same,CL renal,"[1]; iv, i.v., 75 mg/kg",97.6 ± 9.6 mL/min
same,MRT last,"[1]; iv, i.v., 75 mg/kg",1.5 ± 0.4 h
same,Vd,"[1]; iv, i.v., 75 mg/kg",0.03 L/kg
same,Tmax,"[1]; po, 10 mg/kg",120 min
same,Tmax,"[1]; po, 25 mg/kg",120 min
same,Tmax,"[1]; po, 75 mg/kg",120 min
same,bioavailability,"[1]; po, p.o., 10 mg/kg",22.9%
same,MRT last,"[1]; po, p.o., 10 mg/kg",12.8 ± 0.1 h
same,bioavailability,"[1]; po, p.o., 25 mg/kg",24.3%
same,MRT last,"[1]; po, p.o., 25 mg/kg",9.8 ± 0.2 h
same,CL renal,"[1]; po, p.o., 75 mg/kg",12.2 ± 1.3 mL/min
same,bioavailability,"[1]; po, p.o., 75 mg/kg",4.17%
same,MRT last,"[1]; po, p.o., 75 mg/kg",6.9 ± 0.4 h
same,half-life,"[1]; im, 10 mg/kg, i.m., 10 mg/kg, read-out: t1/2 (converted)",210 min
same,AUC(0-t),"[1]; im, 10 mg/kg, rat serum, i.m., 10 mg/kg, read-out: AUC0→t",1500 ± 100 ng·h/mL
same,Cmax,"[1]; im, 10 mg/kg, rat serum, i.m., 10 mg/kg, read-out: Cmax",500 ± 100 ng/mL
same,half-life,"[1]; im, 25 mg/kg, i.m., 25 mg/kg, read-out: t1/2 (converted)",192 ± 12 min
same,AUC(0-t),"[1]; im, 25 mg/kg, rat serum, i.m., 25 mg/kg, read-out: AUC0→t",2600 ± 200 ng·h/mL
same,Cmax,"[1]; im, 25 mg/kg, rat serum, i.m., 25 mg/kg, read-out: Cmax",700 ± 100 ng/mL
same,half-life,"[1]; im, 75 mg/kg, i.m., 75 mg/kg, read-out: t1/2 (converted)",198 ± 18 min
same,AUC(0-t),"[1]; im, 75 mg/kg, i.m., range over 10, 25 and 75 mg/kg doses, read-out: area under the curve from 0 to 48 h (AUC0→t)",1520 to 5700 ng·h/mL
same,half-life,"[1]; im, 75 mg/kg, i.m., range over 10, 25 and 75 mg/kg doses, read-out: half-life (t1/2)",194 to 209 min
same,AUC(0-t),"[1]; im, 75 mg/kg, rat serum, i.m., 75 mg/kg, read-out: AUC0→t",5700 ± 200 ng·h/mL
same,Cmax,"[1]; im, 75 mg/kg, rat serum, i.m., 75 mg/kg, read-out: Cmax",1800 ± 100 ng/mL
same,Cmax,"[1]; im, range over 10, 25 and doses, read-out: maximum concentration (Cmax) of drug in serum",470 to 1830 ng/mL
same,half-life,"[1]; iv, 10 mg/kg, i.v., 10 mg/kg, read-out: t1/2 (converted)",102 ± 6 min
same,AUC(0-t),"[1]; iv, 10 mg/kg, rat serum, i.v., 10 mg/kg, read-out: AUC0→t",2200 ± 200 ng·h/mL
same,Cmax,"[1]; iv, 10 mg/kg, rat serum, i.v., 10 mg/kg, read-out: Cmax",7500 ± 400 ng/mL
same,half-life,"[1]; iv, 25 mg/kg, i.v., 25 mg/kg, read-out: t1/2 (converted)",102 ± 24 min
same,AUC(0-t),"[1]; iv, 25 mg/kg, rat serum, i.v., 25 mg/kg, read-out: AUC0→t",5400 ± 200 ng·h/mL
same,Cmax,"[1]; iv, 25 mg/kg, rat serum, i.v., 25 mg/kg, read-out: Cmax",16000 ± 500 ng/mL
same,half-life,"[1]; iv, 75 mg/kg, i.v., 75 mg/kg, read-out: t1/2 (converted)",114 ± 30 min
same,AUC(0-t),"[1]; iv, 75 mg/kg, i.v., range over 10, 25 and 75 mg/kg doses, read-out: area under the curve from 0 to 48 h (AUC0→t)",2230 to 36000 ng·h/mL
same,half-life,"[1]; iv, 75 mg/kg, i.v., range over 10, 25 and 75 mg/kg doses, read-out: half-life (t1/2)",102 to 112 min
same,AUC(0-t),"[1]; iv, 75 mg/kg, rat serum, i.v., 75 mg/kg, read-out: AUC0→t",36000 ± 300 ng·h/mL
same,Cmax,"[1]; iv, 75 mg/kg, rat serum, i.v., 75 mg/kg, read-out: Cmax",65100 ± 800 ng/mL
same,Cmax,"[1]; iv, range over 10, 25 and doses, read-out: maximum concentration (Cmax) of drug in serum",7540 to 65100 ng/mL
same,half-life,"[1]; po, 10 mg/kg, p.o., 10 mg/kg, read-out: t1/2 (converted)",276 ± 6 min
same,AUC(0-t),"[1]; po, 10 mg/kg, rat serum, p.o., 10 mg/kg, read-out: AUC0→t",500 ± 100 ng·h/mL
same,Cmax,"[1]; po, 10 mg/kg, rat serum, p.o., 10 mg/kg, read-out: Cmax",100 ng/mL
same,half-life,"[1]; po, 25 mg/kg, p.o., 25 mg/kg, read-out: t1/2 (converted)",264 ± 12 min
same,AUC(0-t),"[1]; po, 25 mg/kg, rat serum, p.o., 25 mg/kg, read-out: AUC0→t",1300 ± 100 ng·h/mL
same,Cmax,"[1]; po, 25 mg/kg, rat serum, p.o., 25 mg/kg, read-out: Cmax",200 ng/mL
same,half-life,"[1]; po, 75 mg/kg, p.o., 75 mg/kg, read-out: t1/2 (converted)",282 ± 24 min
same,AUC(0-t),"[1]; po, 75 mg/kg, p.o., range over 10, 25 and 75 mg/kg doses, read-out: area under the curve from 0 to 48 h (AUC0→t)",510 to 1500 ng·h/mL
same,half-life,"[1]; po, 75 mg/kg, p.o., range over 10, 25 and 75 mg/kg doses, read-out: half-life (t1/2)",263 to 282 min
same,AUC(0-t),"[1]; po, 75 mg/kg, rat serum, p.o., 75 mg/kg, read-out: AUC0→t",1500 ng·h/mL
same,Cmax,"[1]; po, 75 mg/kg, rat serum, p.o., 75 mg/kg, read-out: Cmax",300 ± 100 ng/mL
same,Cmax,"[1]; po, range over 10, 25 and doses, read-out: maximum concentration (Cmax) of drug in serum",50 to 310 ng/mL
same,DPTM in urine (192 h) and feces (240 h) at the last acquisition time point,[2]; LLOQ 5 ng/mL,lower than that of the LLOQ
same,prototype drug excreted in urine at 192 h,[2]; i.m.,1.39%
same,prototype drug excreted in urine at 192 h,[2]; i.v.,1.63%
same,prototype drug excreted in urine at 192 h,[2]; p.o.,1.20%
same,in vitro activities against Gram-positive bacteria,[3],excellent in vitro activities
